Measurements as given in patent publication US7767659B2, “Synthesis of naturally occurring ecteinascidins and related compounds” (Pharma Mar, S.A., priority 2002, dated 2010).

How the values were obtained:
DU-145 = experiment: Inhibition of cells growth by colorimetric assay (SRB); conditions: Homo sapiens, DU-145, 48 h; for GI50: read-out: DU145 GI50; for CC50: read-out: DU145 LC50; for IC (TGI): read-out: DU145 TGI
How it was run: (§1)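 Colorimetric SRB read (490 nm) on triplicate wells after 48 h at 37 °C, 5% CO2. Dose range 10 to 10^−8 μg/ml; 5×10^3 cells/well pre-attached 18 h.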

SK-BR-3 = experiment: as above; conditions: Homo sapiens, SK-BR-3, 48 h; for GI50: read-out: SK-BR3 GI50; for CC50: read-out: SK-BR3 LC50; for IC (TGI): read-out: SK-BR3 TGI
How it was run: as §1

IGROV-ET = experiment: as above; conditions: Homo sapiens, 48 h; for GI50: read-out: IGROV-ET GI50; for CC50: read-out: IGROV-ET LC50; for IC (TGI): read-out: IGROV-ET TGI
How it was run: as §1

HeLa-APL = experiment: as above; conditions: Homo sapiens, 48 h; for GI50: read-out: HELA-APL GI50; for CC50: read-out: HELA-APL LC50; for IC (TGI): read-out: HELA-APL TGI
How it was run: as §1

K-562 = experiment: as above; conditions: Homo sapiens, K562, 48 h; for GI50: read-out: K562 GI50; for CC50: read-out: K562 LC50; for IC (TGI): read-out: K562 TGI
How it was run: as §1

HeLa = experiment: as above; conditions: Homo sapiens, HeLa, 48 h; for GI50: read-out: HELA GI50; for CC50: read-out: HELA LC50; for IC (TGI): read-out: HELA TGI
How it was run: as §1

LoVo-Dox = experiment: as above; conditions: Homo sapiens, 48 h; for GI50: read-out: LOVO-DOX GI50; for CC50: read-out: LOVO-DOX LC50; for IC (TGI): read-out: LOVO-DOX TGI
How it was run: as §1

LNCaP = experiment: as above; conditions: Homo sapiens, LNCaP, 48 h; for GI50: read-out: LNCAP GI50; for CC50: read-out: LNCAP LC50; for IC (TGI): read-out: LNCAP TGI
How it was run: as §1

PANC-1 = experiment: as above; conditions: Homo sapiens, PANC-1, 48 h; for GI50: read-out: PANC-1 GI50; for CC50: read-out: PANC-1 LC50; for IC (TGI): read-out: PANC-1 TGI
How it was run: as §1

SK-MEL-28 = experiment: as above; conditions: Homo sapiens, SK-MEL-28, 48 h; for GI50: read-out: MEL-28 GI50; for CC50: read-out: MEL-28 LC50; for IC (TGI): read-out: MEL-28 TGI
How it was run: as §1

IGROV-1 = experiment: as above; conditions: Homo sapiens, IGROV-1, 48 h; for GI50: read-out: IGROV GI50; for CC50: read-out: IGROV LC50; for IC (TGI): read-out: IGROV TGI
How it was run: as §1

LoVo = experiment: cells; conditions: Homo sapiens, LoVo, 48 h; for GI50: read-out: LOVO GI50; for CC50: read-out: LOVO LC50; for IC (TGI): read-out: LOVO TGI
How it was run: as §1

A-549 = experiment: cells; conditions: Homo sapiens, A549, 48 h; for GI50: read-out: A549 GI50; for CC50: read-out: A549 LC50; for IC (TGI): read-out: A549 TGI
How it was run: as §1

HT-29 = experiment: cells; conditions: Homo sapiens, HT-29, 48 h; for GI50: read-out: HT29 GI50; for CC50: read-out: HT29 LC50; for IC (TGI): read-out: HT29 TGI
How it was run: as §1

## COc1c(C)cc2c(c1O)[C@H]1N[C@@H](C2)[C@H](O)N2C1[C@@H]1SC[C@]3(NCCc4c3[nH]c3ccc(C)cc43)C(=O)OC[C@H]2c2c3c(c(C)c(OC(C)=O)c21)OCO3 (stereo partly drawn) [compound 66]
DU-145
  GI50: 3.39 nM
  CC50: 3860 nM
  IC (TGI): 1.6 nM
SK-BR-3
  GI50: 6.5 nM
  CC50: 13200 nM
  IC (TGI): 331 nM
IGROV-ET
  GI50: 38.3 nM
  CC50: 5590 nM
  IC (TGI): 179 nM
HeLa-APL
  GI50: 3.05 nM
  CC50: 12.7 nM
  IC (TGI): 6.24 nM
K-562
  GI50: 4.33 nM
  CC50: 484 nM
  IC (TGI): 12.5 nM
HeLa
  GI50: 2.41 nM
  CC50: 9.07 nM
  IC (TGI): 4.68 nM
LoVo-Dox
  GI50: 370 nM
  CC50: 13200 nM
  IC (TGI): 1890 nM
LNCaP
  GI50: 1.99 nM
  CC50: 7.39 nM
  IC (TGI): 3.83 nM
PANC-1
  GI50: 4.57 nM
  CC50: 6400 nM
  IC (TGI): 23.4 nM
SK-MEL-28
  GI50: 5.34 nM
  CC50: 74.5 nM
  IC (TGI): 18.9 nM
IGROV-1
  GI50: 2.99 nM
  CC50: 160 nM
  IC (TGI): 6.76 nM
LoVo
  GI50: 5.27 nM
  CC50: 4350 nM
  IC (TGI): 20.9 nM
A-549
  GI50: 7.62 nM
  CC50: 874 nM
  IC (TGI): 39.7 nM
HT-29
  GI50: 5.86 nM
  CC50: 13200 nM
  IC (TGI): 181 nM

## COc1c(C)cc2c(c1O)[C@H]1N[C@@H](C2)[C@H](C#N)N2C1[C@@H]1SC[C@]3(NCCc4c3[nH]c3ccc(C)cc43)C(=O)OC[C@H]2c2c3c(c(C)c(OC(C)=O)c21)OCO3 (stereo partly drawn) [compound 62]
DU-145
  GI50: 3.3 nM
  CC50: 3590 nM
  IC (TGI): 10.4 nM
SK-BR-3
  GI50: 1.01 nM
  CC50: 103 nM
  IC (TGI): 4.74 nM
IGROV-ET
  GI50: 26.6 nM
  CC50: 2920 nM
  IC (TGI): 69.5 nM
HeLa-APL
  GI50: 2.3 nM
  CC50: 10.3 nM
  IC (TGI): 4.88 nM
K-562
  GI50: 1.94 nM
  CC50: 6020 nM
  IC (TGI): 11 nM
HeLa
  GI50: 2.37 nM
  CC50: 11 nM
  IC (TGI): 5.11 nM
LoVo-Dox
  GI50: 136 nM
  CC50: 13100 nM
  IC (TGI): 558 nM
LNCaP
  GI50: 3.01 nM
  CC50: 8.4 nM
  IC (TGI): 5.03 nM
PANC-1
  GI50: 3.86 nM
  CC50: 4750 nM
  IC (TGI): 13.5 nM
SK-MEL-28
  GI50: 2.46 nM
  CC50: 9.78 nM
  IC (TGI): 4.92 nM
IGROV-1
  GI50: 2.59 nM
  CC50: 3900 nM
  IC (TGI): 6.55 nM
LoVo
  GI50: 5.03 nM
  CC50: 1540 nM
  IC (TGI): 17.9 nM
A-549
  GI50: 4.56 nM
  CC50: 334 nM
  IC (TGI): 16.5 nM
HT-29
  GI50: 4.03 nM
  CC50: 12500 nM
  IC (TGI): 283 nM
